The target of series [1] is T1, Dihydrofolate reductase (Pneumocystis carinii, UniProt P16184).
T1 sequence (P16184 whole entry): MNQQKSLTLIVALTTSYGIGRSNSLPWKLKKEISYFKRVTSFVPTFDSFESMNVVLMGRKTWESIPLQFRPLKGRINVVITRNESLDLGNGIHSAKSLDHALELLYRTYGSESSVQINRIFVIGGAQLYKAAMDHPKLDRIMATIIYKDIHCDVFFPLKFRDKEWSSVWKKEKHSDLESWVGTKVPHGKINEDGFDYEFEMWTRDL
Description: Inhibitory activity was determined against dihydrofolate reductase in Pneumocystis carinii.

For series [2], the system named is Rattus norvegicus. The experiment in a line: Evaluated for effectiveness at 10 mg/kg reported as relative to pentamidine in rat. It counts as functional.
The species entered for series [3] is Rattus norvegicus. The experiment in a line: Toxicity was reported in rat. It is filed as organism-based. The following applies: in vivo.
The target of series [4] is T1, Dihydrofolate reductase. This is another data set of the same source.
Description: Inhibitory activity against dihydrofolate reductase in Pneumocystis carinii at 37 centigrade.
The target in series [5] is T1, Dihydrofolate reductase. This is another data set of the same source.
Description: Binding affinity was reported with purified recombinant Pneumocystis carinii Dihydrofolate reductase
In series [6] the target is T2, Dihydrofolate reductase (Rattus norvegicus, UniProt Q920D2).
T2 sequence (Q920D2 whole entry): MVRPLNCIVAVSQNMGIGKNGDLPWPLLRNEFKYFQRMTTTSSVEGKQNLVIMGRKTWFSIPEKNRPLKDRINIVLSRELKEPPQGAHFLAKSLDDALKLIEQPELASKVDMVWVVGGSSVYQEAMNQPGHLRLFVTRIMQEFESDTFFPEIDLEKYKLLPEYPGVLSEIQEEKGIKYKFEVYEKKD
The experiment in a line: Inhibitory activity against dihydrofolate reductase in rat liver.

For series [7], the system named is Pneumocystis carinii. The experiment in a line: Pneumocystis carinii cysts per gram of lung tissue was determined in Pneumocystis carinii expressed as perscent of saline treated- control. It counts as functional. Further details: concentration or dose not given beside the values.
In series [8] the test system is Pneumocystis carinii. The experiment in a line: Toxicity in Pneumocystis carinii Strong activity. It is filed as organism-based. The following applies: in vivo.
The species named for series [9] is Rattus norvegicus. The experiment in a line: Toxicity was reported in rat; Toxic. It counts as organism-based. The note with it: in vivo.
Series [10] has as its system Pneumocystis carinii. The experiment in a line: Minimal effective concentration inhibiting growth of Pneumocystis carinii was reported. It counts as functional. The note with it: read-out: MEC.
For series [11], the target named is T1, Dihydrofolate reductase. This is another data set of the same source.
For series [12], the species on record is Rattus norvegicus. The experiment in a line: Toxicity was reported in rat; Toxic,. It counts as organism-based. The following applies: in vivo.
Series [13] can be described thus: Inhibitory activity of Pneumocystis carinii growth culture.
Series [14] deals with T2, Dihydrofolate reductase. The experiment in a line: Inhibitory activity against dihydrofolate reductase in rat.
Series [15] can be described thus: Ratio for IC50 of mammalian DHFR to IC50 of Pneumocystis carinii DHFR.
For series [16], the species on record is Rattus norvegicus. The experiment in a line: toxicity was reported in rat. It is filed as organism-based. The following applies: in vivo.

In general, IC50 refers to the concentration that gives 50% inhibition. Usually Ki stands for the equilibrium dissociation constant of an inhibitor or competing ligand from its target.

On to `Nc1nc(N)c2cc(Sc3cccc(C(F)(F)F)c3)sc2n1`, for which the IC50 in [1] turned out to be 120 µM.

In turn, `N=C(N)c1cccc(OCCCCOc2cccc(C(=N)N)c2)c1` displayed an Effectiveness in series [2] of 0.6. In addition, in [3], the Toxicity turned out to be 0.

In the case of `CC1(C)N=C(N)N=C(N)N1c1ccc(Cl)cc1` [CYCLOGUANIL], the results for the IC50 in series [4] and in [6] were 0.45 µM and 0.11 µM, respectively. The compound also displayed a Ki in [5] of 0.0233 µM.

Consider `N=C(N)c1ccc2[nH]c(CCCCc3nc4cc(C(=N)N)ccc4[nH]3)nc2c1`, for which the “Lung cyst count, % of saline control” value in series [7] turned out to be 0.3%. Moreover, the Toxicity result in series [8] was “Strong activity”.

`N=C(N)c1ccc2[nH]c(/C=C/c3nc4cc(C(=N)N)ccc4[nH]3)nc2c1`: the “Lung cyst count, % of saline control” value in series [7] is given as 3%.

With `c1cc2[nH]c(CCCCc3nc4cc(C5=NCCN5)ccc4[nH]3)nc2cc1C1=NCCN1`, the “Lung cyst count, % of saline control” value in series [7] stood at 0.1%. Also, in [8], the Toxicity entry is “Strong activity”.

In [1], `COc1cc(Cn2ccc3c4c(N)nc(N)nc4nc(O)c32)cc(OC)c1OC` yielded a concentration for half-maximal inhibition (IC50) of 3.1 µM.

Consider `COCCOc1c(OC)cc(Cc2cnc(N)nc2N)cc1OC` [TETROXOPRIM], for which, in series [4], the 50% inhibitory concentration (IC50) was > 63 µM.

Regarding `c1cc(C2=NCCN2)ccc1OCOc1ccc(C2=NCCN2)cc1`, the Effectiveness in series [2] is on record as 2.4. Besides, the Toxicity in [3] is 0.

As to `Nc1nc(N)c2c(ncc3c2ccn3Cc2ccc(Cl)cc2Cl)n1`, the IC50 in [1] is 0.006 µM.

Compound `N=C(N)c1cc(N)cc(OCCCCOc2cc(C(=N)N)ccc2N)c1` displayed an Effectiveness in [2] of 1.1. The compound also displayed a Toxicity in series [3] of 0.

Compound `COc1ccc(OC)c(CCc2sc3nc(N)nc(N)c3c2C)c1` displayed an IC50 in series [1] of 1.2 µM.

`N=C(N)c1ccc(OCCCOc2ccc(C(=N)N)cc2)cc1` [PROPAMIDINE] displayed an Effectiveness in series [2] of 1.2. The Toxicity result in series [9] is reported as “Toxic”.

Turning to `COc1cc(NC(C)CCCN)c2nccc(C)c2c1Oc1cccc(C(F)(F)F)c1` (stereo not drawn), in series [10], the minimal effective concentration worked out at 0.2 µM.

`Cc1cc(NS(=O)(=O)c2ccc(N)cc2)no1` [SULFAMETHOXAZOLE] registered an IC50 in [11] of 0.1 µM.

`CCc1nc(N)nc(N)c1-c1ccc(Cl)c(NCN(C)C)c1` gave a 50% inhibitory concentration (IC50) in [1] of 10.6 µM.

In the case of `N=C(N)c1ccc2[nH]c(CCCc3nc4cc(C(=N)N)ccc4[nH]3)nc2c1`, the “Lung cyst count, % of saline control” value in series [7] worked out at 32%.

For the compound `c1cc2[nH]c(CCCc3nc4cc(C5=NCCN5)ccc4[nH]3)nc2cc1C1=NCCN1`, the “Lung cyst count, % of saline control” value in series [7] is reported as 4%.

For `COc1cc(NC(C)CCCN)c2nc(C)ccc2c1` (stereo not drawn), the minimal effective concentration in series [10] came out at 0.03 µM.

`COc1cc(C2=NCCN2)ccc1OCCCOc1ccc(C2=NCCN2)cc1` showed an Effectiveness in series [2] of 1.3. The same compound yielded a Toxicity in series [3] of 0.

In the case of `COc1ccc(C2=NCCN2)cc1OCCCCOc1cccc(C2=NCCN2)c1`, in [2], the Effectiveness came out at 1.7. Moreover, in series [12], the Toxicity result is “Toxic”.

Regarding `CCc1nc(N)nc(N)c1-c1ccc(Cl)c([N+]#N)c1`, the IC50 in series [1] was 0.19 µM.

For the compound `N=C(N)c1cccc(OCOc2cccc(C(=N)N)c2)c1`, in series [2], the Effectiveness amounted to 0.7. This compound also gave a Toxicity in series [3] of 0.

`N=C(N)c1ccc(OCCCCCOc2ccc(C(=N)N)cc2)cc1` [PENTAMIDINE]: the Effectiveness in [2] came out at 1. In series [12], the Toxicity entry is listed as “Toxic”.

With `CCCCCCOc1c(OC)cc(NC(C)CCCN)c2nccc(C)c12` (stereo not drawn) [WR-242511], in series [10], the minimal effective concentration stood at 0.2 µM.

In series [2], `c1cc(OCCOc2cccc(C3=NCCN3)c2)cc(C2=NCCN2)c1` yielded an Effectiveness of 0.6. In series [3], the Toxicity entry is “Toxic”.

With `CCN=NNc1cc(-c2c(N)nc(N)nc2CC)ccc1Cl`, the IC50 in [13] was determined as 5.5 µM; in series [14] it was 18.9 µM; in [1], 2.8 µM.

As to `N=C(N)c1ccc(OCOc2ccc(C(=N)N)cc2N)c(N)c1`, in [2], the Effectiveness amounted to 1.1. In series [3], this compound gave a Toxicity of 0.

Regarding `CN(Cc1cnc2cc(N)cc(N)c2n1)c1ccc(C(=O)NC(CCC(=O)O)C(=O)O)c2ccccc12` (stereo not drawn), the IC50 in series [1] was 0.19 µM.

In turn, `CN(Cc1cnc2nc(N)nc(N)c2n1)c1ccc(C(=O)NC(CCC(=O)NC(CCC(=O)NC(CCC(=O)NC(CCC(=O)O)C(=O)O)C(=O)O)C(=O)O)C(=O)O)cc1` (stereo not drawn) came in with an IC50 in series [1] of 0.035 µM.

On to `N=C(N)c1ccc2[nH]c(CCc3nc4cc(C(=N)N)ccc4[nH]3)nc2c1`, for which the “Lung cyst count, % of saline control” value in series [7] is listed as 1%.

The compound `Nc1ccc(S(=O)(=O)c2ccc(N)cc2)cc1` [DAPSONE] came in with an IC50 in series [1] of 1.5 µM.

Compound `CCOc1cc(Cc2cnc(N)nc2N)cc(OCC)c1-n1cccc1` [EPIROPRIM] returned an IC50 in [4] of 3 µM. The compound further returned a Ki in series [5] of 0.0034 µM. The Selectivity in [15] was 44.

Take `COc1cc(NC(C)CCCN)c2nccc(C)c2c1` (stereo not drawn): in series [10], the minimal effective concentration was found to be 0.02 µM.

On to `COc1cc(OCCCCOc2cc(C(=N)N)ccc2OC)cc(C(=N)N)c1`, for which the Effectiveness in [2] stood at 1.2. The same compound registered a Toxicity in [3] of 0.

With `CCN(CC)CCCCCCNc1cc(OC)cc2c(C)ccnc12` [SITAMAQUINE], the minimal effective concentration in series [10] is 2.3 µM.

On to `COc1cc(NCCCCC(C)N)c2nccc(C)c2c1` (stereo not drawn), for which the minimal effective concentration in series [10] was determined as 0.2 µM.

In the case of `N=C(N)c1ccc(OCCCCOc2ccc(C(=N)N)cc2)cc1`, in series [2], the Effectiveness was determined as 2.2. In series [16], this compound showed a Toxicity of 0.

`Nc1cc(N)c2nc(CSc3ccccc3)cnc2c1` returned an IC50 in series [1] of 9.5 µM.

In the case of `COc1cc(C)c2c(Oc3cccc(C(F)(F)F)c3)c(OC)cc(NC(C)CCCN)c2n1` (stereo not drawn) [TAFENOQUINE], the minimal effective concentration in series [10] came to 0.2 µM.

`COc1cc(C(=N)N)ccc1OCOc1ccc(C(=N)N)cc1OC` gave an Effectiveness in [2] of 1.8. Further, the Toxicity in series [3] is 0.

`COc1cc(NC(C)CCCN)c2ncccc2c1` (stereo not drawn) [PRIMAQUINE]: the minimal effective concentration in series [10] was found to be 0.02 µM.
